Measurements from publication PMC9403976, “Elucidating the path to Plasmodium prolyl-tRNA synthetase inhibitors that overcome halofuginone resistance” (Nature Communications, 2022).
Values joined by “and” are separate entries in the source; they are usually repeats but may differ in a detail not shown here. Equal entries are not always repeated. Where two headings read alike, the source gives them in different places.

Legend:
[1] = system: P. falciparum Dd2-2D4; test: P. falciparum asexual blood stage (ABS) growth assay, SYBR Green, 72 h, wild-type parasites; format: cell-based, Plasmodium falciparum; conditions: for ABS growth dose-response, normalized signal (Replicates 1-3) / parasite growth, dose-response point: Dd2-2D4; for parasite growth, dose-response point: single replicates
[2] = system: halofuginone-induced P. falciparum (elevated proline homeostasis); test: P. falciparum ABS growth assay, SYBR Green, 72 h, halofuginone-induced parasites; format: cell-based, Plasmodium falciparum; conditions: for parasite growth, dose-response point: Halofuginone-Induced (HFG-Induced), single replicates
Method in brief: (§1)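 Asexual blood-stage Dd2 parasites, 1% parasitemia/1% hematocrit, RPMI + 0.5% Albumax; triplicate dose-response, 72 h. Readout SYBR Green 1 fluorescence. Controls: 10 μM dihydroartemisinin (kill), no compound (growth). EC50 values determined.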

[3] = system: HFGR-I P. falciparum (elevated proline homeostasis and PfcProRS^L482H); test: P. falciparum ABS growth assay, SYBR Green, 72 h, HFGR-I parasites; format: cell-based, Plasmodium falciparum; conditions: HFGR-I, single replicates
Method in brief: as §1

[4] = target: T1, PfcProRS (Plasmodium falciparum, UniProt Q8I5R7); format: binding; conditions: for dose-response signal (normalized), SI Fig 8: single replicates
T1 construct: made in house; host or cells: E. coli SoluBL-21

[5] = target: HsProRS (Homo sapiens, UniProt P07814); test: TR-FRET ligand displacement assay with tracer MAT379 (CoraFluor-1-Halo and anti-His6 antibody formats); format: binding; set-up: made in house; host or cells: E. coli SoluBL-21; conditions: for TR-FRET dose-response, normalized signal (SI Fig 11): individual replicates
Chain of HsProRS (P07814 996-1512): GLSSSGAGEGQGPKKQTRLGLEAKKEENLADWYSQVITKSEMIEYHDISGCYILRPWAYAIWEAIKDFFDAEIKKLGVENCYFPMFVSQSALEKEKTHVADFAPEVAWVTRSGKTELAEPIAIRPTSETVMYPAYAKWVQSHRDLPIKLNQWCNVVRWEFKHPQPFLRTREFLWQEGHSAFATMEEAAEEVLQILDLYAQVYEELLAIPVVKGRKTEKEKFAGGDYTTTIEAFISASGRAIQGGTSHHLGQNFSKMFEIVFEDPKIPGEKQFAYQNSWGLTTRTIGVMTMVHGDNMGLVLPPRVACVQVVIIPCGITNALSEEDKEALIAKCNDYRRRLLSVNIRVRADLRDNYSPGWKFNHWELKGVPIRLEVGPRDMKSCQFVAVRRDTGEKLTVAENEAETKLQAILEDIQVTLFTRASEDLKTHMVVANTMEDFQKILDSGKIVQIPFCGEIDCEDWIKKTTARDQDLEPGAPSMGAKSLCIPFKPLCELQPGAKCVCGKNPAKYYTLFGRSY

T1 sequence (Q8I5R7 249-746): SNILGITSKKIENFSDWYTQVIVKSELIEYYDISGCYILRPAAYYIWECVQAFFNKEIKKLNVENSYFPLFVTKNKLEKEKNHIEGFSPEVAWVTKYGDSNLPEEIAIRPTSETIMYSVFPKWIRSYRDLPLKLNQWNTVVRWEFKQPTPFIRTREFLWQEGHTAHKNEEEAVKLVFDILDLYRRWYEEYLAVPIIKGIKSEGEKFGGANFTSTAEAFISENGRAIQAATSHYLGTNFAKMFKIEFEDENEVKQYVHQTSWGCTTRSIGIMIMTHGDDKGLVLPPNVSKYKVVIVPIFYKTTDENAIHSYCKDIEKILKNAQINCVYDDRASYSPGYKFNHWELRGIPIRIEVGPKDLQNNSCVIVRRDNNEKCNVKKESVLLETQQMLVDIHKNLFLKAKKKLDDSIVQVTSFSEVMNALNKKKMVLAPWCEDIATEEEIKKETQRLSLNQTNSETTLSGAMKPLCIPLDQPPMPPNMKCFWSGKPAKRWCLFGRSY

CC1(C(=O)Nc2nccnc2C(=O)NC2Cc3ccccc3C2)CCCCC1 [compound 4]
ABS growth dose-response, normalized signal (Replicates 1-3) ([1]; Log[inhibitor] (M) -5.000): 0
parasite growth, dose-response point ([1]; Log[inhibitor] (M) -5.000): 0
ABS growth dose-response, normalized signal (Replicates 1-3) ([1]; Log[inhibitor] (M) -5.301): 0
parasite growth, dose-response point ([1]; Log[inhibitor] (M) -5.301): 0
ABS growth dose-response, normalized signal (Replicates 1-3) ([1]; Log[inhibitor] (M) -5.602): 0
parasite growth, dose-response point ([1]; Log[inhibitor] (M) -5.602): 0
ABS growth dose-response, normalized signal (Replicates 1-3) ([1]; Log[inhibitor] (M) -6.505): 8
parasite growth, dose-response point ([1]; Log[inhibitor] (M) -6.505): 8
EC50 ([1]; Plasmodium falciparum, DD2, SI Fig 16b, values on -log scale, read-out: ABS - Dd2-2D4 (converted)): 180 nM
parasite growth, dose-response point ([2]; Log[inhibitor] (M) -5): 1
parasite growth, dose-response point ([2]; Log[inhibitor] (M) -5.408): 1
parasite growth, dose-response point ([2]; Log[inhibitor] (M) -5.816): 0 (2×) and 1
parasite growth, dose-response point ([2]; Log[inhibitor] (M) -6.222): 16 and 18 and 17
parasite growth, dose-response point ([2]; Log[inhibitor] (M) -6.638): 99 (2×) and 106
parasite growth, dose-response point ([2]; Log[inhibitor] (M) -7.046): 103 (2×) and 109
parasite growth, dose-response point ([2]; Log[inhibitor] (M) -7.45): 100 and 97
parasite growth, dose-response point ([2]; Log[inhibitor] (M) -7.854): 100 (2×) and 97
parasite growth, dose-response point ([2]; Log[inhibitor] (M) -8.26): 101 and 95 and 97
parasite growth, dose-response point ([2]; Log[inhibitor] (M) -8.699): 99 and 98 (2×)
parasite growth, dose-response point ([2]; Log[inhibitor] (M) -9): 96 (2×) and 97
parasite growth, dose-response point ([2]; Log[inhibitor] (M) -9.488): 98 and 95 and 102
dose-response value, Replicates 1-3 (SI Fig 2e) ([2]; Log[inhibitor] (M) -5.000): 1
dose-response value, Replicates 1-3 (SI Fig 2e) ([2]; Log[inhibitor] (M) -5.408): 1
parasite growth, dose-response point ([3]; Log[inhibitor] (M) -5): 6 and 7 (2×)
parasite growth, dose-response point ([3]; Log[inhibitor] (M) -5.408): 7 (2×) and 6
parasite growth, dose-response point ([3]; Log[inhibitor] (M) -5.816): 6 (2×) and 7
parasite growth, dose-response point ([3]; Log[inhibitor] (M) -6.222): 10 (2×) and 9
parasite growth, dose-response point ([3]; Log[inhibitor] (M) -6.638): 75 and 76 and 81
parasite growth, dose-response point ([3]; Log[inhibitor] (M) -7.046): 99 and 105 and 110
parasite growth, dose-response point ([3]; Log[inhibitor] (M) -7.45): 87 and 99 and 100
parasite growth, dose-response point ([3]; Log[inhibitor] (M) -7.854): 99 and 98 and 103
parasite growth, dose-response point ([3]; Log[inhibitor] (M) -8.26): 100 and 101 and 104
parasite growth, dose-response point ([3]; Log[inhibitor] (M) -8.699): 98 and 99 and 104
parasite growth, dose-response point ([3]; Log[inhibitor] (M) -9): 101 and 97 and 100
parasite growth, dose-response point ([3]; Log[inhibitor] (M) -9.488): 89 and 96 and 93
dose-response signal (normalized), SI Fig 8 ([4]; Log[inhibitor] (M) -5.000): 4.05E-02 and -1.19E-01 and -1.91E-02
dose-response signal (normalized), SI Fig 8 ([4]; Log[inhibitor] (M) -5.301): -7.53E-02 and -2.32E-02 and 3.73E-02
dose-response signal (normalized), SI Fig 8 ([4]; Log[inhibitor] (M) -5.601): -7.78E-02 and -2.66E-03 and -2.25E-02
dose-response signal (normalized), SI Fig 8 ([4]; Log[inhibitor] (M) -5.904): 1.67E-02 and 2.48E-02 and 1.76E-02
dose-response signal (normalized), SI Fig 8 ([4]; Log[inhibitor] (M) -6.208): 8.20E-02 and 4.30E-02 and 6.02E-02
dose-response signal (normalized), SI Fig 8 ([4]; Log[inhibitor] (M) -6.509): 7.49E-03 and -2.38E-02 and -1.11E-02
dose-response signal (normalized), SI Fig 8 ([4]; Log[inhibitor] (M) -6.796): 4.86E-02 and 3.80E-02 and -1.10E-02
dose-response signal (normalized), SI Fig 8 ([4]; Log[inhibitor] (M) -7.108): 4.17E-02 and 7.57E-02 and 3.79E-02
dose-response signal (normalized), SI Fig 8 ([4]; Log[inhibitor] (M) -7.409): 2.11E-01 and 1.42E-01 and 1.90E-01
dose-response signal (normalized), SI Fig 8 ([4]; Log[inhibitor] (M) -7.710): 4.47E-01 and 2.93E-01 and 4.00E-01
dose-response signal (normalized), SI Fig 8 ([4]; Log[inhibitor] (M) -8.000): 7.09E-01 and 7.29E-01 and 6.69E-01
dose-response signal (normalized), SI Fig 8 ([4]; Log[inhibitor] (M) -8.301): 8.70E-01 and 9.23E-01 and 9.80E-01
dose-response signal (normalized), SI Fig 8 ([4]; Log[inhibitor] (M) -8.602): 1.09E+00 and 9.73E-01 and 1.05E+00
dose-response signal (normalized), SI Fig 8 ([4]; Log[inhibitor] (M) -9.000): 9.29E-01 and 9.06E-01 and 9.66E-01
dose-response signal (normalized), SI Fig 8 ([4]; Log[inhibitor] (M) -9.301): 8.49E-01 and 1.04E+00 and 9.72E-01
PfcProRS -- best Kd ([4]; SI Fig 16a, values on -log scale): 8.466
Kd ([5]; HsProRS (KD [nM]) −, absence of substrates, 250 nM MAT379): 221 nM
Kd ([5]; HsProRS - best Kd, SI Fig 16a, values on -log scale): 2.55 nM
normalized TR-FRET ligand displacement signal, dose-response replicates (SI Fig 6) ([5]; Log[inhibitor] (M) -5.000): 4.53E-02 and 6.57E-02 and 9.85E-02
TR-FRET dose-response, normalized signal (SI Fig 11) ([5]; Log[inhibitor] (M) -5.000): 6.99E-03 and -1.87E-02 and 8.97E-03
normalized TR-FRET ligand displacement signal, dose-response replicates (SI Fig 6) ([5]; Log[inhibitor] (M) -5.301): 8.38E-02 and 1.09E-01 and 1.45E-01
TR-FRET dose-response, normalized signal (SI Fig 11) ([5]; Log[inhibitor] (M) -5.301): 5.00E-02 and 2.79E-02 and 4.24E-02
normalized TR-FRET ligand displacement signal, dose-response replicates (SI Fig 6) ([5]; Log[inhibitor] (M) -5.601): 2.80E-01 and 1.33E-01 and 2.62E-01
TR-FRET dose-response, normalized signal (SI Fig 11) ([5]; Log[inhibitor] (M) -5.601): 1.01E-01 and 8.93E-02 and 1.03E-01
normalized TR-FRET ligand displacement signal, dose-response replicates (SI Fig 6) ([5]; Log[inhibitor] (M) -5.904): 4.58E-01 and 3.89E-01 and 4.73E-01
TR-FRET dose-response, normalized signal (SI Fig 11) ([5]; Log[inhibitor] (M) -5.904): 1.64E-01 and 2.16E-01 and 1.95E-01
normalized TR-FRET ligand displacement signal, dose-response replicates (SI Fig 6) ([5]; Log[inhibitor] (M) -6.208): 6.24E-01 and 6.52E-01 and 5.78E-01
TR-FRET dose-response, normalized signal (SI Fig 11) ([5]; Log[inhibitor] (M) -6.208): 2.83E-01 and 3.32E-01 and 2.85E-01
normalized TR-FRET ligand displacement signal, dose-response replicates (SI Fig 6) ([5]; Log[inhibitor] (M) -6.509): 8.00E-01 and 8.38E-01 and 8.01E-01
TR-FRET dose-response, normalized signal (SI Fig 11) ([5]; Log[inhibitor] (M) -6.509): 4.57E-01 and 4.64E-01 and 4.80E-01
normalized TR-FRET ligand displacement signal, dose-response replicates (SI Fig 6) ([5]; Log[inhibitor] (M) -6.796): 9.06E-01 and 8.75E-01 and 9.05E-01
TR-FRET dose-response, normalized signal (SI Fig 11) ([5]; Log[inhibitor] (M) -6.796): 6.22E-01 and 6.48E-01 and 6.15E-01
normalized TR-FRET ligand displacement signal, dose-response replicates (SI Fig 6) ([5]; Log[inhibitor] (M) -7.108): 9.19E-01 and 1.02E+00 and 8.47E-01
TR-FRET dose-response, normalized signal (SI Fig 11) ([5]; Log[inhibitor] (M) -7.108): 7.25E-01 and 7.35E-01 and 7.08E-01
normalized TR-FRET ligand displacement signal, dose-response replicates (SI Fig 6) ([5]; Log[inhibitor] (M) -7.409): 8.93E-01 and 1.05E+00 and 9.99E-01
TR-FRET dose-response, normalized signal (SI Fig 11) ([5]; Log[inhibitor] (M) -7.409): 8.57E-01 and 8.69E-01 and 8.79E-01
normalized TR-FRET ligand displacement signal, dose-response replicates (SI Fig 6) ([5]; Log[inhibitor] (M) -7.710): 9.69E-01 (2×) and 9.96E-01
TR-FRET dose-response, normalized signal (SI Fig 11) ([5]; Log[inhibitor] (M) -7.710): 9.21E-01 and 9.18E-01 and 9.07E-01
normalized TR-FRET ligand displacement signal, dose-response replicates (SI Fig 6) ([5]; Log[inhibitor] (M) -8.000): 1.02E+00 and 9.51E-01 and 1.08E+00
TR-FRET dose-response, normalized signal (SI Fig 11) ([5]; Log[inhibitor] (M) -8.000): 9.42E-01 and 9.60E-01 and 9.15E-01
normalized TR-FRET ligand displacement signal, dose-response replicates (SI Fig 6) ([5]; Log[inhibitor] (M) -8.301): 8.99E-01 and 1.00E+00 and 9.75E-01
TR-FRET dose-response, normalized signal (SI Fig 11) ([5]; Log[inhibitor] (M) -8.301): 9.32E-01 and 9.20E-01 and 9.46E-01
normalized TR-FRET ligand displacement signal, dose-response replicates (SI Fig 6) ([5]; Log[inhibitor] (M) -8.602): 9.54E-01 and 1.01E+00 and 9.27E-01
TR-FRET dose-response, normalized signal (SI Fig 11) ([5]; Log[inhibitor] (M) -8.602): 9.70E-01 and 9.45E-01 and 9.16E-01
normalized TR-FRET ligand displacement signal, dose-response replicates (SI Fig 6) ([5]; Log[inhibitor] (M) -9.000): 9.66E-01 and 9.16E-01 and 8.85E-01
TR-FRET dose-response, normalized signal (SI Fig 11) ([5]; Log[inhibitor] (M) -9.000): 9.54E-01 and 9.83E-01 and 9.88E-01
normalized TR-FRET ligand displacement signal, dose-response replicates (SI Fig 6) ([5]; Log[inhibitor] (M) -9.301): 1.02E+00 (2×) and 1.01E+00
TR-FRET dose-response, normalized signal (SI Fig 11) ([5]; Log[inhibitor] (M) -9.301): 9.40E-01 and 9.47E-01 and 9.44E-01
